From PubChem BioAssay (NCI) come the findings set out here.

Among the test systems are RPMI-8226 leukemia; KM12 colon; RXF 393 renal; SF-295 CNS; COLO 205 colon; U251 CNS; UO-31 renal; 786-0 renal; SNB-19 CNS; BT-549 breast.
What all share (assay): NCI anticancer screen, dose series, 48 h

Each structure is given as a SMILES string.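 Interpolation was linear, between the two tested concentrations surrounding the appropriate level; five concentrations were tested over 48 hours in 96-well plates. The concentration for 50% growth inhibition is given as GI50. TGI: concentration producing complete growth inhibition.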

In the case of `CC(=O)O[C@H]1C=CC23OC(=O)[C@]1(C)[C@H]2[C@H](C(=O)O)C12CC(=O)[C@@](CO)(CC[C@H]13)C2`, the TGI in the assay on RPMI-8226 leukemia, in the assay with KM12 colon, in the assay on RXF 393 renal, in the assay with SF-295 CNS, in the assay with COLO 205 colon and with U251 CNS was above 100 µM each time. Besides, the TGI in the assay with UO-31 renal, with 786-0 renal and with SNB-19 CNS was above 100 µM throughout.
As for `NCP(=O)(O)OCC(=O)O`, the TGI with KM12 colon, with RXF 393 renal, in the assay on SF-295 CNS, in the assay with COLO 205 colon, with U251 CNS and in the assay on UO-31 renal was above 100 µM in each case. The TGI in the assay on 786-0 renal and with SNB-19 CNS was above 100 µM each time.
As for `N#Cc1cccc(OCc2ccccc2COc2cccc(C#N)c2)c1`, the GI50 in the assay with RPMI-8226 leukemia is 15 µM; in the assay on BT-549 breast, 36.7 µM; with SF-295 CNS it was 5.64 µM; in the assay with COLO 205 colon it was 33.8 µM; with U251 CNS it was 19.4 µM; in the assay with UO-31 renal, 51.3 µM. Besides, the GI50 with 786-0 renal is 12.3 µM; with SNB-19 CNS, above 100 µM. Moreover, the TGI in the assay on RPMI-8226 leukemia was 59.1 µM; in the assay with BT-549 breast, 93.3 µM; in the assay with SF-295 CNS it was 20.3 µM; in the assay on COLO 205 colon, 98.3 µM; with U251 CNS, 43.4 µM; in the assay with UO-31 renal, above 100 µM. The TGI with 786-0 renal is 27.7 µM; with SNB-19 CNS, above 100 µM.
Turning to `Cn1cc(NC(=O)c2cc(NC(=O)CCCCCCC(=O)Nc3cc(C(=O)Nc4cc(C(=O)NCCC(=N)N)n(C)c4)n(C)c3)cn2C)cc1C(=O)NCCC(=N)N`, the TGI with KM12 colon was 13.3 µM; with RXF 393 renal, 31.4 µM; in the assay on SF-295 CNS, above 100 µM; in the assay with COLO 205 colon, 18.9 µM; in the assay with U251 CNS, 68.8 µM; in the assay with UO-31 renal, above 100 µM. The TGI is 33.8 µM in the assay with 786-0 renal and above 100 µM in the assay with SNB-19 CNS.
In the case of `Nc1ccc(C(=O)N/C(=C\c2cccc([N+](=O)[O-])c2)c2nc3c4c(ccc3[nH]2)C(=O)c2ccccc2C4=O)cc1`, the TGI was above 100 µM in the assay with RPMI-8226 leukemia; 57.7 µM in the assay with RXF 393 renal; above 100 µM in the assay with SF-295 CNS; above 100 µM in the assay with COLO 205 colon; above 100 µM in the assay with U251 CNS; 7.64 µM with UO-31 renal. For the same molecule, the TGI in the assay on 786-0 renal and with SNB-19 CNS was above 100 µM each time.
For `CN(C)CC1CCCC/C1=N/OC(=O)c1ccc(Cl)c(Cl)c1` (centres undefined), the TGI in the assay with RPMI-8226 leukemia, in the assay on KM12 colon, in the assay on RXF 393 renal, in the assay on SF-295 CNS, with COLO 205 colon and with U251 CNS was above 100 µM in each case. The TGI in the assay with UO-31 renal and in the assay on 786-0 renal was above 100 µM in each case.
For the molecule `COC(=O)C1CC(C(=O)OC)c2nc3cc(C)c(C)cc3nc21` (centres undefined), the TGI with RPMI-8226 leukemia, in the assay with KM12 colon, in the assay on SF-295 CNS, in the assay on COLO 205 colon, in the assay with U251 CNS and in the assay on UO-31 renal was above 100 µM in each case. Besides, the TGI in the assay with 786-0 renal and in the assay on SNB-19 CNS was above 100 µM each time.
As to `O=C(Nc1cccc(C(F)(F)F)c1)c1cc(Br)cc(Br)c1O`, the TGI in the assay with RPMI-8226 leukemia is 5.86 µM; in the assay on KM12 colon, above 10 µM; in the assay with RXF 393 renal it was 9.12 µM; in the assay with SF-295 CNS, 7.19 µM; in the assay on COLO 205 colon it was 9.71 µM; with U251 CNS it was above 10 µM. Besides, the TGI was 8.51 µM in the assay on UO-31 renal, above 10 µM in the assay with 786-0 renal and above 10 µM in the assay on SNB-19 CNS.
As for `COc1ccc(C(=O)O/N=C2/CCC/C2=C\c2ccccc2)cc1`, the TGI with RPMI-8226 leukemia, in the assay with KM12 colon, in the assay on RXF 393 renal, in the assay on SF-295 CNS, in the assay with COLO 205 colon and in the assay with U251 CNS was above 100 µM each time. In addition, the TGI with UO-31 renal, in the assay with 786-0 renal and in the assay on SNB-19 CNS was above 100 µM each time.
In the case of `C1C[OH+]CC[OH+]CC[OH+]CC[OH+]CC[OH+]CC[OH+]1.[Cl-].[Nb+5]`, the GI50 was above 100 µM in the assay on RPMI-8226 leukemia; above 100 µM with KM12 colon; 85.3 µM in the assay with RXF 393 renal; above 100 µM in the assay with SF-295 CNS; above 100 µM in the assay on COLO 205 colon; above 100 µM with U251 CNS. For the same molecule, the GI50 with UO-31 renal is 68.6 µM; in the assay on 786-0 renal it was above 100 µM; in the assay on SNB-19 CNS, above 100 µM. Further, the TGI in the assay on RPMI-8226 leukemia, in the assay with KM12 colon, with RXF 393 renal, with SF-295 CNS, in the assay with COLO 205 colon and with U251 CNS was above 100 µM each time. Further, the TGI in the assay on UO-31 renal, with 786-0 renal and with SNB-19 CNS was above 100 µM throughout.
As for `COC(=O)Cc1nc2ccccc2o1`, the TGI in the assay with RPMI-8226 leukemia, with KM12 colon, in the assay on RXF 393 renal, with SF-295 CNS, in the assay with COLO 205 colon and in the assay on U251 CNS was above 100 µM throughout. The TGI in the assay with UO-31 renal, with 786-0 renal and in the assay with SNB-19 CNS was above 100 µM in each case.
Take `Nc1nc(N)c(-c2ccccc2)c(CCC(=O)Nc2ccc(Cl)cc2)n1`: the TGI in the assay on RPMI-8226 leukemia, in the assay on KM12 colon, with SF-295 CNS, with COLO 205 colon, in the assay on U251 CNS and in the assay on UO-31 renal was above 100 µM in each case. Besides, the TGI in the assay with 786-0 renal and in the assay with SNB-19 CNS was above 100 µM in each case.
As to `OCC(O)C(OC1OC(CO)C(O)C(O)C1O)c1nn(-c2ccccc2)c2nc3cc(Cl)ccc3nc12` (centres undefined), the TGI in the assay with RPMI-8226 leukemia, in the assay with KM12 colon, in the assay on RXF 393 renal, in the assay on SF-295 CNS, in the assay on U251 CNS and with UO-31 renal was above 100 µM in each case. In addition, the TGI in the assay with 786-0 renal and in the assay with SNB-19 CNS was above 100 µM each time.
As for `CCOC(=O)/N=c1/nc(N(C)C)ss1`, the TGI in the assay with RPMI-8226 leukemia, in the assay on KM12 colon, in the assay with RXF 393 renal, in the assay on SF-295 CNS, in the assay with U251 CNS and with UO-31 renal was above 100 µM each time. Besides, the TGI in the assay with 786-0 renal and with SNB-19 CNS was above 100 µM in each case.
